≈ marks a conversion by molar mass, not a printed value. Read-outs that look alike come from different tables or passages of the source.
Columns and labels:
[1] = test system: A. baumannii 1403; assay: MIC assay, strain 1403; format: cell-based, Acinetobacter baumannii; details: strain 1403; for MIC: Acinetobacter baumannii
Protocol: (§1) MIC and MBC assays were performed in this study as documented by us previously.^17,23,24,25 The A. baumannii strains used are detailed in Table 7.

[2] = test system: A. baumannii 1646; assay: MIC assay, strain 1646; format: cell-based, Acinetobacter baumannii
Protocol: as §1

[3] = test system: A. baumannii 1651; assay: MIC assay, strain 1651; format: cell-based, Acinetobacter baumannii; details: strain 1651
Protocol: as §1

[4] = test system: A. baumannii 1652; assay: MIC assay, strain 1652; format: cell-based, Acinetobacter baumannii; details: strain 1652
Protocol: as §1

[5] = test system: A. baumannii 1403; assay: minimal bactericidal concentration (MBC) assay, strain 1403; format: cell-based; details: Acinetobacter baumannii, Table 8, read-out: MBC90 1403
Procedure, shortened: (§2)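 MBC90 determined against A. baumannii clinical isolates to distinguish bactericidal from bacteriostatic activity, following the group's previously published MIC/MBC protocol.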

[6] = test system: A. baumannii 1650; assay: minimal bactericidal concentration (MBC) assay, strain 1650; format: cell-based; details: Acinetobacter baumannii, Table 8, read-out: MBC90 1650
Procedure, shortened: as §2

[7] = test system: A. baumannii 1651; assay: minimal bactericidal concentration (MBC) assay, strain 1651; format: cell-based; details: Acinetobacter baumannii, Table 8, read-out: MBC90 1651
Procedure, shortened: as §2

[8] = test system: A. baumannii 1652; assay: minimal bactericidal concentration (MBC) assay, strain 1652; format: cell-based; details: Acinetobacter baumannii, Table 8, read-out: MBC90 1652
Procedure, shortened: as §2

[9] = test system: A. baumannii 1403 biofilm; assay: biofilm eradication determination assay, strain 1403; format: cell-based, Acinetobacter baumannii; details: 90% biofilm eradication, Table 8
[10] = test system: A. baumannii 1646 biofilm; assay: biofilm eradication determination assay, strain 1646; format: cell-based, Acinetobacter baumannii
[11] = test system: A. baumannii 1649 biofilm; assay: biofilm eradication determination assay, strain 1649; format: cell-based, Acinetobacter baumannii; details: 90% biofilm eradication, Table 8
[12] = test system: A. baumannii 1650 biofilm; assay: biofilm eradication determination assay, strain 1650; format: cell-based, Acinetobacter baumannii; details: 90% biofilm eradication, Table 8
[13] = test system: A. baumannii 1651 biofilm; assay: biofilm eradication determination assay, strain 1651; format: cell-based, Acinetobacter baumannii; details: 90% biofilm eradication, Table 8
[14] = test system: A. baumannii 1652 biofilm; assay: biofilm eradication determination assay, strain 1652; format: cell-based, Acinetobacter baumannii; details: 90% biofilm eradication, Table 8
[15] = test system: human HepG2 cells; format: cell-based
[16] = test system: A. baumannii 1646; assay: murine model of lethal peritonitis; format: in vivo, mice; details: 2 mg kg^-1 intraperitoneal, one hour post challenge, 5 days
Protocol: As a final assessment, we used a murine model of lethal A. baumannii infection to determine the efficacy of quinazolines in vivo. This was performed using frontrunner 5, which had the most promising properties from all of our biological testing. Accordingly, mice were inoculated with a lethal dose of A. baumannii via intraperitoneal injection on the right side of the abdomen. One hour post challenge, mice were treated with an intraperitoneal injection of 2 mg kg^−1 of frontrunner 5 on the left side of the abdomen. As a control, we also performed similar testing using 30 mg kg^−1 of tigecycline, which we already know our test strain to be susceptible to in vitro.
Characteristics of pre-moribund state include: hunched posture, rapid, shallow and/or labored breathing, ruffled fur, lethargy, failure to respond to stimuli, soiled anogenital area, paralysis, paresis, head tilt, circling, vocalizations, non-purposeful movements, and/or were unable to eat or drink. Those mice reaching this state prior to the completion of the 5-day infection period were euthanized. The number of mice surviving between control and treatment groups was compared and analyzed for statistical significance using a log-rank (Mantel-Cox) test.

## CNc1nc(NCc2ccccc2)nc2ccc(C)cc12 [Compound 5, N^2-Benzyl-N^4,6-dimethylquinazoline-2,4-diamine]
[1]; Tables 1, 3, 4, 5 and footnotes, read-out: 1403 MIC
  MIC: 10 µM (≈ 2.78 µg/mL)
[1]; lead quinazolines, Table 8, read-out: MIC 1403
  MIC: 10 µM (≈ 2.78 µg/mL)
[1]; Table 2
  1403 MIC: 10 μm
[2]; Acinetobacter baumannii, Table 6, representative data for isolate 1646, read-out: MIC
  MIC: 1 µM (≈ 0.278 µg/mL)
[2]; Acinetobacter baumannii, strain 1646, Table 2, read-out: 1646 MIC
  MIC: 2 µM (≈ 0.557 µg/mL)
[2]; Acinetobacter baumannii, strain 1646, lead quinazolines, Table 8, read-out: MIC 1646
  MIC: 1 µM (≈ 0.278 µg/mL)
[2]; strain 1646, Tables 1, 3, 4, 5 and footnotes, read-out: 1646 MIC
  MIC: 2 µM (≈ 0.557 µg/mL)
[3]; Acinetobacter baumannii, Table 2, read-out: 1651 MIC
  MIC: 10 µM (≈ 2.78 µg/mL)
[3]; Acinetobacter baumannii, lead quinazolines, Table 8, read-out: MIC 1651
  MIC: 1 µM (≈ 0.278 µg/mL)
[3]; Tables 1, 3, 4, 5 and footnotes, read-out: 1651 MIC
  MIC: 10 µM (≈ 2.78 µg/mL)
[4]; Acinetobacter baumannii, Table 2, read-out: 1652 MIC
  MIC: 20 µM (≈ 5.57 µg/mL)
[4]; Acinetobacter baumannii, lead quinazolines, Table 8, read-out: MIC 1652
  MIC: 20 µM (≈ 5.57 µg/mL)
[4]; Tables 1, 3, 4, 5 and footnotes, read-out: 1652 MIC
  MIC: 20 µM (≈ 5.57 µg/mL)
[5]
  MBC: 30 µM (≈ 8.35 µg/mL)
[6]
  MBC: 27 µM (≈ 7.52 µg/mL)
[7]
  MBC: 1.5 µM (≈ 0.418 µg/mL)
[8]
  MBC: 12 µM (≈ 3.34 µg/mL)
[9]
  MBEC90 1403: 13 µM
[10]; Table 6, representative data for isolate 1646
  MBEC90: 2.8 µM
[10]; at 10 μM, strain 1646
  reduction in biofilm viability: 3 log
[10]; strain 1646, 90% biofilm eradication, Table 8 and text
  MBEC90 1646: 2.8 µM
[11]
  MBEC90 1649: 34 µM
[12]
  MBEC90 1650: 21 µM
[13]
  MBEC90 1651: 11 µM
[14]
  MBEC90 1652: 68 µM
[15]; at 25 μM (highest concentration tested)
  HepG2 cell viability: 44%
[15]; human, 48 h
  LD50(HepG2): 22 µM
[16]
  survival rate of infected animals: 83%

From patent US10323007B1, “N2N N4-disubstituted quinazoline-2,4-diamines and uses thereof” (University of South Florida, priority 2016, dated 2019)
